# Data reported in US20090012103A1, “SUBSTITUTED HETEROCYCLIC COMPOUNDS” (priority 2007, published 2009).
# Key:
# [1] = molecular target: T1, wild-type human cardiac sodium channel, hNav1.5 (Homo sapiens, UniProt Q14524); experiment: Late INa screening assay (late sodium current, PatchXpress whole cell patch clamp); format: cell-based; conditions: compound at 10 μM; read-out: Late INa % blk
# [2] = molecular target: T1, wild-type human cardiac sodium channel, hNav1.5; experiment: Peak INa screening assay (tonic block TB and use-dependent block UDB of peak sodium current); format: cell-based; conditions: compound at 10 μM
# Experimental: The late sodium current (Late INa) and peak sodium current (Peak INa) assays are performed on an automated electrophysiology platform, PatchXpress 7000A (MDS Analytical Technologies, Sunnyvale, Calif.), which uses the whole cell patch clamp technique to measure currents through the cell membrane of up to 16 cells at a time. The assay uses an HEK293 (human embryonic kidney) cell line heterologously expressing the wild-type human cardiac sodium channel, hNav1.5, purchased from Millipore (Billerica, Mass.). No beta subunits were coexpressed with the Na channel alpha subunit. […] Experiments are carried out at 24-27° C.
# For both the Late INa and Peak INa assays, series resistance compensation is set to 50% and whole-cell compensation is performed automatically. […] Currents through open sodium channels are automatically recorded and stored in the DataXpress2 database (MDS Analytical Technologies, Sunnyvale, Calif.). Analysis is performed using DataXpress2 analysis software and data are compiled in Excel.
# Compound stocks are routinely made in glass vials to 10 mM in dimethyl sulfoxide (DMSO). In some cases, when compounds are not soluble in DMSO, they are made in 100% ethanol. Stocks are sonicated as necessary. The extracellular solution for screening Late INa is composed of: 140 mM NaCl, 4 mM KCl, 1.8 mM CaCl2, 0.75 mM MgCl2, and 5 mM HEPES with pH adjusted to 7.4 using NaOH. The extracellular solution for screening Peak INa is composed of: 20 mM NaCl, 120 mM N-methyl-D glucamine, 4 mM KCl, 1.8 mM CaCl2, 0.75 mM MgCl2, and 5 mM HEPES with pH adjusted to 7.4 using HCl. The intracellular solution used to perfuse the inside of the cells for both the Late INa and Peak INa assays contains: 120 mM CsF, 20 mM CsCl, 5 mM EGTA, 5 mM HEPES and pH adjusted to 7.4 with CsOH. Compounds are diluted in extracellular solution to 10 μM in glass vials and then transferred to glass well plates before robotic addition to the cells. The 0 Na extracellular solution used at the end of each experiment for the Late INa and Peak INa assays to measure baseline current contains: 140 mM N-methyl-D-glucamine; 4 mM KCl; 1.8 mM CaCl2; 0.75 mM MgCl2; 5 mM HEPES and pH was adjusted to 7.4 with HCl.
# Compounds were also evaluated for their effect in several other assays, including their effect on Peak INa. In some cases, the effect on Peak INa was measured using data from the Late INa assay. […] Since the peak INa can be very large, introducing artifacts in the recording, the concentration of Na^+ in the bath is reduced to 20 mM and a nonpermeant cation is added to compensate for the Na^+ that was omitted from the standard extracellular solution (see above). The peak INa assay uses a holding potential of −100 mV and a 20 ms test pulse to 0 mV to activate the channel. As in the Late INa assay, stepping the voltage to 0 mV causes a rapid increase in negative Na current through hNav1.5 that inactivates within a few ms. No late INa activator is added for the peak assay.
# For the separate peak INa assay, both tonic (TB) block and use-dependent (UDB) block of peak inward sodium current by 10 μM compound are determined. TB is block of the channel in the resting state, before the channel opens. TB is simulated in this assay by stimulating the channel to open at a low frequency (0.1 Hz). This is done in order to measure the control current amplitude and monitor current rundown, enabling correction for rundown in the calculation of percent block for TB.
# [3] = tonic block, read-out: Tonic Peak INa % blk
# [4] = use-dependent block, read-out: UDB Peak INa % blk
# T1 sequence (Q14524 whole entry): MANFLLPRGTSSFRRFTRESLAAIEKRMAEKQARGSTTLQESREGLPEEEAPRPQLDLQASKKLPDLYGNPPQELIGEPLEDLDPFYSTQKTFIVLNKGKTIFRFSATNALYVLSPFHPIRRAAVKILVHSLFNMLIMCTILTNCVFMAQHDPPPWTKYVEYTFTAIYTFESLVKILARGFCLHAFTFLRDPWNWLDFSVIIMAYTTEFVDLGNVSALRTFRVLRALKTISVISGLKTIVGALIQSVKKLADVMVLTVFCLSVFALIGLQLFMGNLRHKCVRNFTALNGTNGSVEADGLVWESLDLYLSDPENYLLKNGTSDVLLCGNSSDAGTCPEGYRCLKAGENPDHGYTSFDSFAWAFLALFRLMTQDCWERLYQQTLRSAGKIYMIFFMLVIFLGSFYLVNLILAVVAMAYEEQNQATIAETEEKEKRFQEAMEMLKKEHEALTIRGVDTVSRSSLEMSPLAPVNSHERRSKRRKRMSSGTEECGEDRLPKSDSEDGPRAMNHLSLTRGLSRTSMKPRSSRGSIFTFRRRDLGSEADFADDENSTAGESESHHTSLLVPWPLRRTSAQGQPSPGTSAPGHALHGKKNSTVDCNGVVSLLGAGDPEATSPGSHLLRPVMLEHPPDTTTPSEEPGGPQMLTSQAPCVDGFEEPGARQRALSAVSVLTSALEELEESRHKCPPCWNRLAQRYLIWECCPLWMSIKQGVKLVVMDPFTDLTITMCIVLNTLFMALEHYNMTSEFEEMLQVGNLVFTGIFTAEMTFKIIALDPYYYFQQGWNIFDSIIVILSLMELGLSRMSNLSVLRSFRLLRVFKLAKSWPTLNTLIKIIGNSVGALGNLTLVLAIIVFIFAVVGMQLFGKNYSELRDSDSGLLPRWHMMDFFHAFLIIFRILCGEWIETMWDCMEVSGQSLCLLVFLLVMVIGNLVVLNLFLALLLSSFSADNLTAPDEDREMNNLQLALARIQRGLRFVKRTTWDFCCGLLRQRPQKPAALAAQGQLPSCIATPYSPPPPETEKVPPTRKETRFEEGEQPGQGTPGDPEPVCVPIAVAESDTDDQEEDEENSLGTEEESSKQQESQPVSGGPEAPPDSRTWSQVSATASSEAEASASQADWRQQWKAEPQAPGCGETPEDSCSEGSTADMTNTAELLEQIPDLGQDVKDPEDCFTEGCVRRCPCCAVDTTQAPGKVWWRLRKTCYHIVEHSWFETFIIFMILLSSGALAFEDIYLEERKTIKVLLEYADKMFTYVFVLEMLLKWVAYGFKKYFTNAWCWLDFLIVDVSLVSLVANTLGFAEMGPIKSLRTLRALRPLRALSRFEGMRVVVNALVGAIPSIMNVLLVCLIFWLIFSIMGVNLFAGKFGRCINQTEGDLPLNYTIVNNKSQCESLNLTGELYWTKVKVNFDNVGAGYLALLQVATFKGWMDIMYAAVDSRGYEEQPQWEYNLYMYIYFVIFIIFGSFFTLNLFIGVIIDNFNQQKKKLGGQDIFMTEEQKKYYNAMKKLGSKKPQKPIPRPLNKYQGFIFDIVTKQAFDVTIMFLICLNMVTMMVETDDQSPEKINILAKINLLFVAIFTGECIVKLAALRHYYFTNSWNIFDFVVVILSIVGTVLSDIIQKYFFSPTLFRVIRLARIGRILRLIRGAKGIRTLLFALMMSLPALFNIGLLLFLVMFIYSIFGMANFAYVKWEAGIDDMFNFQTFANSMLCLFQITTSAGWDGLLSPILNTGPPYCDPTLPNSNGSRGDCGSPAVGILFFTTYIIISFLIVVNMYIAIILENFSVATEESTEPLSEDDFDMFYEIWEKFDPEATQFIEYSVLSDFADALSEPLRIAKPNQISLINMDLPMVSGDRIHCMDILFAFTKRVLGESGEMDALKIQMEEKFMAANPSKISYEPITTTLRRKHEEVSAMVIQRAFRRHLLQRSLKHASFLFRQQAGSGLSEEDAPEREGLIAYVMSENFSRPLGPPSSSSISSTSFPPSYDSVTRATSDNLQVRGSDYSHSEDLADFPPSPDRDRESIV
Structure (SMILES),inhibition at 10 µM [1] [%],"inhibition at 10 µM [2, 3] [%]","inhibition at 10 µM [2, 4] [%]"
"CC1=C(C(=O)OCC(F)(F)F)C(c2cccc3ccccc23)n2nnnc2N1 (stereo not shown) [PT-014, 2,2,2-trifluoroethyl 5-methyl-7-(naphthalen-1-yl)-4,7-dihydrotetrazolo[1,5-a]pyrimidine-6-carboxylate]",50.9,9,–
"CC1=C(C(=O)O[C@@H](C)c2ccccc2)C(c2cccc3ccccc23)n2nnnc2N1 (stereo partly drawn) [PT-048, (S)-1-phenylethyl 5-methyl-7-(naphthalen-1-yl)-4,7-dihydrotetrazolo[1,5-a]pyrimidine-6-carboxylate]",90.8,58.6,–
"CC1=C(C(=O)O[C@@H](C)c2ccccc2)C(c2c3ccccc3cc3ccccc23)n2nnnc2N1 (stereo partly drawn) [PT-055, (S)-1-phenylethyl 7-(anthracen-9-yl)-5-methyl-4,7-dihydrotetrazolo[1,5-a]pyrimidine-6-carboxylate]",56.3,7.6,–
"N#CC1=C(N)OC2=C(C(=O)CC(c3ccccc3)C2)C1c1ccsc1 (stereo not shown) [PT-102, 2-amino-5-oxo-7-phenyl-4-(thiophen-3-yl)-5,6,7,8-tetrahydro-4H-chromene-3-carbonitrile]",44.9,2.7,–
"CCOC(=O)C1=C(C)NC(C)=C(C(=O)OCC)C1c1ccsc1 [PT-110, diethyl 2,6-dimethyl-4-(thiophen-3-yl)-1,4-dihydropyridine-3,5-dicarboxylate]",41.8,0,–
"CCOC(=O)C1=C(C)NC2=C(C(=O)CCC2)C1c1ccc(C)c2ccccc12 (stereo not shown) [PT-135, ethyl 2-methyl-4-(4-methylnaphthalen-1-yl)-5-oxo-1,4,5,6,7,8-hexahydroquinoline-3-carboxylate]",59.9,9.6,–
"CC1=C(C(=O)OC(C)C)C(c2c[nH]nc2-c2cccs2)C2=C(CC(C)(C)CC2=O)N1 (stereo not shown) [PT-162, isopropyl 2,7,7-trimethyl-5-oxo-4-(3-(thiophen-2-yl)-1H-pyrazol-4-yl)-1,4,5,6,7,8-hexahydroquinoline-3-carboxylate]",-0.2,1.1,–
"CC1=C(C(=O)NCCCCc2ccccc2)C(c2ccsc2)C2=C(CCCC2=O)N1 (stereo not shown) [PT-164, 2-methyl-5-oxo-N-(4-phenylbutyl)-4-(thiophen-3-yl)-1,4,5,6,7,8-hexahydroquinoline-3-carboxamide]",32,10.2,–
"CC1=C(C(=O)O[C@@H](C)c2ccccc2)C(c2sc3ccccc3c2C)n2nccc2N1 (stereo partly drawn) [PT-244, (S)-1-phenylethyl 5-methyl-7-(3-methylbenzo[b]thiophen-2-yl)-4,7-dihydropyrazolo[1,5-a]pyrimidine-6-carboxylate]",68.7,66.2,44
"COc1ccccc1COC(=O)C1=C(C)Nc2nnnn2C1c1c(C)cccc1C (stereo not shown) [PT-262, 2-methoxybenzyl 7-(2,6-dimethylphenyl)-5-methyl-4,7-dihydrotetrazolo[1,5-a]pyrimidine-6-carboxylate]",70,15.1,6.9
"CC1=C(c2nnc(Cc3ccccc3)o2)C(c2cccc3ccccc23)C2=C(CCCC2=O)N1 (stereo not shown) [PT-276, 3-(5-benzyl-1,3,4-oxadiazol-2-yl)-2-methyl-4-(naphthalen-1-yl)-4,6,7,8-tetrahydroquinolin-5(1H)-one]",49.7,31.3,13
"CC1=C(C(=O)OCc2ccccc2)C(c2ccc3ccccc3c2)C2=C(CCCC2=O)N1 (stereo not shown) [PT-320, benzyl 2-methyl-4-(naphthalen-2-yl)-5-oxo-1,4,5,6,7,8-hexahydroquinoline-3-carboxylate]",51,16.7,26.5
"CCOC(=O)[C@@H]1CCCN(c2cc(OC)ccc2C2C(C(=O)OCc3ccccc3)=C(C)Nc3[nH]ncc32)C1 (stereo partly drawn) [PT-327, benzyl 4-(2-((R)-3-(ethoxycarbonyl)piperidin-1-yl)-4-methoxyphenyl)-6-methyl-4,7-dihydro-1H-pyrazolo[3,4-b]pyridine-5-carboxylate]",35.3,18.5,9.4
"CC1=C(C(=O)OCc2ccccc2)C(c2ccc(N(C)C)c3ccccc23)c2cn[nH]c2N1 (stereo not shown) [PT-332, benzyl 4-(4-(dimethylamino)naphthalen-1-yl)-6-methyl-4,7-dihydro-1H-pyrazolo[3,4-b]pyridine-5-carboxylate]",20,11.3,2.7
"CC1=C(C(=O)OCc2ccccc2)C(c2occc2-c2ccccc2)n2nnnc2N1 (stereo not shown) [PT-351, benzyl 5-methyl-7-(3-phenylfuran-2-yl)-4,7-dihydrotetrazolo[1,5-a]pyrimidine-6-carboxylate]",81.6,49.9,–
"CC1=C(C(=O)OCc2ccccc2)C(c2sccc2-c2ccccc2)n2nnnc2N1 (stereo not shown) [PT-352, benzyl 5-methyl-7-(3-phenylthiophen-2-yl)-4,7-dihydrotetrazolo[1,5-a]pyrimidine-6-carboxylate]",76.3,17.7,–
"CCOC(=O)[C@@H]1CCCN(c2cc(OC)ccc2C2C(C(=O)OCc3ccccc3)=C(C)Nc3nnnn32)C1 (stereo partly drawn) [PT-373, benzyl 7-(2-((R)-3-(ethoxycarbonyl)piperidin-1-yl)-4-methoxyphenyl)-5-methyl-4,7-dihydrotetrazolo[1,5-a]pyrimidine-6-carboxylate]",64.9,22.5,–
"CC1=C(C(=O)OCc2ccccc2)C(c2ccccc2OCCN(C)C)n2nnnc2N1 (stereo not shown) [PT-374, benzyl 7-(2-(2-(dimethylamino)ethoxy)phenyl)-5-methyl-4,7-dihydrotetrazolo[1,5-a]pyrimidine-6-carboxylate]",66.3,38.7,–
"COc1ccc(-c2sc3ccccc3c2C2C(C(=O)OCc3ccccc3)=C(C)Nc3nnnn32)cc1 (stereo not shown) [PT-379, benzyl 7-(2-(4-methoxyphenyl)benzo[b]thiophen-3-yl)-5-methyl-4,7-dihydrotetrazolo[1,5-a]pyrimidine-6-carboxylate]",55,11.1,9.8
"COc1cc([N+](=O)[O-])ccc1C1C(C(=O)OCc2ccccc2)=C(C)Nc2ccnn21 (stereo not shown) [PT-394, benzyl 7-(2-methoxy-4-nitrophenyl)-5-methyl-4,7-dihydropyrazolo[1,5-a]pyrimidine-6-carboxylate]",45.2,15.4,8
"CC1=C(C(=O)OCc2ccccc2)C(c2sccc2Br)n2nnnc2N1 (stereo not shown) [PT-401, benzyl 7-(3-bromothiophen-2-yl)-5-methyl-4,7-dihydrotetrazolo[1,5-a]pyrimidine-6-carboxylate]",77.3,25.9,–
"CC1=C(C(=O)OCc2ccccc2)C(c2cc(C)c(C)s2)n2nnnc2N1 (stereo not shown) [PT-414, benzyl 7-(4,5-dimethylthiophen-2-yl)-5-methyl-4,7-dihydrotetrazolo[1,5-a]pyrimidine-6-carboxylate]",78,21.6,–
"CC1=C(C(=O)OC(c2ccc(F)cc2)c2ccc(F)cc2)C(c2cccs2)n2nnnc2N1 (stereo not shown) [PT-423, bis(4-fluorophenyl)methyl 5-methyl-7-(thiophen-2-yl)-4,7-dihydrotetrazolo[1,5-a]pyrimidine-6-carboxylate]",67.2,18.5,20.4
